This passage reports melting point results from a melting point compilation (Tetko et al.; mined from patent text by program, amines drawn as free bases though some values may be those of a salt).

Bounds are passed on as bounds.

What is called melting point is the temperature, or range, at which the solid turns liquid. In turn, `CCCCc1nccc2c([N+](=O)[O-])cccc12` gave a melting point of 69 to 69.5 °C.

With `COC(=O)c1ccccc1-c1nc(COc2ccc(CO)cc2OC)c(C)o1`, the melting point lay within 100 to 101 °C.

In turn, `C=C(C)OC(=O)N1c2ccncc2NC(=O)C1C` (racemic) returned a melting point of 170 to 171 °C.

With `CCCCC(=O)Nc1ccc(Br)c(-n2nc(CC)n(Cc3ccc(-c4ccccc4S(=O)(=O)NC(=O)OC(C)(C)C)cc3F)c2=O)c1`, the melting point lay within 108 to 110 °C.

Regarding `COc1cc(C(=O)CCC(=O)O)ccc1O`, the melting point lay in the range of 174 to 175 °C.

As to `Cc1nc(C)c(-c2[nH]nc3c2C(=O)c2c(NC(=O)NN4CCOCC4)cccc2-3)s1`, the melting point is above 300 °C.

For the molecule `COc1cccc2c1nc(C(F)F)n2-c1nc(N2CCOCC2)c2ncn(-c3cccnc3)c2n1`, the melting point lay in the range of 229 to 231 °C.

In turn, `O=C1CN=C(c2ccccc2Cl)c2cc(I)sc2N1` gave a melting point of 229 to 231 °C.

The molecule `CCC(OC)(c1cccc(OCc2cc3ccccc3n(C)c2=O)c1)c1nccs1` (stereo not drawn) gave a melting point of 123 to 125 °C.

`C(=Cc1ccc(OCCCCc2nnn[nH]2)cc1)c1ccncc1` gave a melting point of 158 to 159 °C.

Regarding `CC(=O)Oc1ccc(C(=O)c2cccc(C(=O)O)c2)cc1`, the melting point was 190 to 193 °C.

`CCCCc1nc(C(O)(CC)CC)c(C(=O)OCC)[nH]1` came in with a melting point of 63 to 64 °C.

`COC1=Cc2cc(Cl)ccc2C(O)(C2CCN(C)CC2)c2ccsc21` (stereo not drawn) showed a melting point of 223 to 227 °C.

With `CNC(=O)On1c(C(F)(F)F)nc2nc(Br)c(Cl)c(Br)c21`, the melting point turned out to be 216 °C.

For `O=C(NCc1ccc(C(F)(F)F)cc1)c1ccnc(NC(=O)c2ccccc2)c1`, the melting point lay within 165 to 168 °C.

`CC(C)CCCC(C)C1CC=C2C3=C(CCC21C)C1(C)CC=CCC1CC3` (stereo not drawn) had a melting point of 105 °C.

As to `O=C(O)CNC(=O)C(Cc1ccccc1)P(=O)(O)O` (stereo not drawn), the melting point is 250 °C.

`Cc1cccc(-c2nc(C(C)C)[nH]c2-c2ccc(F)c(-c3ccco3)c2)n1`: the melting point fell in the range of 78 to 90 °C.

As to `CC(C)N(C)c1nccc(Oc2ccc(NC(=O)c3cc(F)cc(N4CCCCC4)c3)c3ccccc23)n1`, the melting point lay within 102 to 104 °C.

Take `CC(C)(C)NCC(O)c1ccc(N)c(C#N)c1` (stereo not drawn): the melting point was 181 to 185 °C.

The molecule `CCCC(COc1noc2ccc(Cl)cc12)NC=O` (stereo not drawn) had a melting point of 107 to 108 °C.

With `CC(C)[C@@H]1COC(=O)N1C(=O)[C@@H](CC(=O)OC(C)(C)C)Cc1ccccc1`, the melting point lay within 167 to 168 °C.

Regarding `COC(=O)CCCSc1c(Cc2cccc3ccccc23)sc2c1c(=O)n(C)c(=O)n2CC(C)C`, the melting point was in the range of 111 to 112 °C.

Turning to `O=C1NCN=C(c2ccccc2)c2ccccc21`, the melting point amounted to 215 °C.

Regarding `CCOC(=O)c1c[nH]c2cnc3c(F)c(Cl)c(F)cc3c2c1=O`, the melting point was 328 °C.

With `CC(=O)OCC1CCc2c(C3=C(c4cn(C)c5ccccc45)C(=O)OC3=O)c3ccccc3n2CC1` (stereo not drawn), the melting point was 70 °C.

On to `Cc1cccc(C)c1NC(=O)CC1c2ccccc2Oc2ccccc21`, for which the melting point was 249 to 250 °C.

On to `CCCCc1c2ccccc2nc2cc(N)ccc12`, for which the melting point was in the range of 108 to 110 °C.

`CNC(=NCCSCc1[nH]cnc1C)NS(=O)(=O)c1ccccc1`: the melting point is 156 to 158 °C.

The molecule `COC(=O)c1cc2cc(C(=O)CN3CCN(c4ccncc4)CC3)ccc2o1` returned a melting point of 173 to 177 °C.

With `COc1cc2ccccc2c(OC)c1C(=O)O`, the melting point lay in the range of 119 to 123 °C.

Turning to `C1=CNC=c2ccccc2=C1`, the melting point was determined as 128 °C.

`FC(F)(F)COc1ccc(-c2nc3n(c2-c2ccc(OCC(F)(F)F)cc2)CCS3)cc1` yielded a melting point of 163 to 164 °C.

For `CC1=C(C(=O)OCOC(=O)C(C)(C)C)N2C(=O)C(NC(=O)OC(C)(C)C)C2SC1` (stereo not drawn), the melting point amounted to 97 °C.

The molecule `COC(=O)C(=CN(C)C)N(C)c1cc(-c2ccc(Cl)c(Cl)c2)n(C)n1` had a melting point of 113 to 114 °C.

`CCOC(=O)c1cccc(C(=O)O)c1` displayed a melting point of 131 to 132 °C.

On to `CCOCc1nc2c(N)nc3cc(OCc4ccccc4Cl)ccc3c2n1CC(C)(C)NS(C)(=O)=O`, for which the melting point was 253 to 255 °C.

Turning to `CN1C(=O)CCc2cc(Cl)ccc21`, the melting point was 76 to 78 °C.

For `C=CCn1c(N)nc(N2CCc3ccccc3CC2)c(C#N)c1=O`, the melting point was 181 to 182 °C.

The molecule `CCCSc1cn(C)cc(-c2ccc(Cl)c(C(F)(F)F)c2)c1=O` showed a melting point of 128 to 130 °C.

Consider `O=C(NCCCn1cncn1)c1ccc(I)cc1`, for which the melting point is 132 to 134 °C.

Molecule `CCCCCCCCCCCCCCCCOCC(CF)COC(c1ccccc1)(c1ccccc1)c1ccccc1` (stereo not drawn) returned a melting point of 32 °C.

Molecule `CC(C)C(NC(=O)N(C)Cc1ccccn1)C(=O)NC(Cc1ccccc1)C(O)C(O)C(Cc1ccccc1)NC(=O)C(NC(=O)N(C)Cc1ccccn1)C(C)C` (stereo not drawn) had a melting point of 159 to 162 °C.

Molecule `COC(=N[N+](=O)[O-])NCc1ccc(Cl)nc1` showed a melting point of 112 to 113 °C.

In turn, `OC(C(c1cccc(Cl)c1)n1ccnc1)C12CC3CC(CC(C3)C1)C2` (stereo not drawn) registered a melting point of 115 °C.

As to `CC(C)(C)c1cc(C=[N+]([O-])C(C)(C)C)c(O)c(C(C)(C)C)c1`, the melting point worked out at 235 °C.

Molecule `CSc1cc(N)ccc1[N+](=O)[O-]` had a melting point of 178 to 182 °C.

In the case of `CCOC(=O)c1ccc2cccc([N+](=O)[O-])c2c1`, the melting point was determined as 120 °C.

In the case of `Cc1onc(NS(=O)(=O)c2ccccc2)c1Cl`, the melting point was in the range of 139 to 141 °C.

`COc1ccc(-c2[nH]c(-c3ccc(N)c(C)c3)nc2C(=O)Nc2nccs2)cc1` registered a melting point above 250 °C.

Consider `CNCCSC1=Cc2ccccc2Sc2ccc(O)cc21`, for which the melting point fell in the range of 147 to 149 °C.

On to `O=C(/C=C/c1ccc(F)cc1)N1CCN2C(=O)OC(c3ccccc3)(c3ccccc3)C2C1` (stereo not drawn), for which the melting point lay in the range of 250 to 251 °C.

Molecule `CCCCCCCCCCOc1ccc(-c2ccc(CCCCC(C)OC(C)=O)cc2)cc1` (stereo not drawn) returned a melting point of 75 to 76 °C.

Take `CN1C(=O)[C@H](NC(=O)CCC2CCCCC2)[N+]([O-])=C(c2ccccc2)c2ccccc21`: the melting point lay in the range of 222 to 224 °C.

As to `CCOC(=O)c1cc(C)cc(-c2ccc(NC(=O)OCc3ccccc3)cc2)n1`, the melting point lay in the range of 184 to 185 °C.

Molecule `COc1ccc(N2C(=O)C(=C3CCCN3C)c3ccccc32)cc1` registered a melting point of 90 to 93 °C.

For the molecule `CN1CCN(c2cccc3c2C[C@H](NC(=O)c2ccc(N4CCSCC4)cc2)CC3)CC1`, the melting point fell in the range of 190 to 191 °C.

With `CN=C(NCCCc1nc2cc(C3=NNC(=O)CC3C)ccc2[nH]1)NC(=O)c1ccccc1` (stereo not drawn), the melting point was 270 °C.

As to `CCOC(=O)Nc1cc2c3ccccc3n(Cc3ccccc3)c2cn1`, the melting point fell in the range of 217 to 218 °C.

In turn, `COc1c(C)cc2ccccc2c1C(CC(=O)O)C(=O)O` (stereo not drawn) showed a melting point of 159 °C.

Take `C[C@@H](n1cnc2cc(N)c(F)cc2c1=O)[C@](O)(Cn1cncn1)c1ccc(F)cc1F`: the melting point is 124 to 125 °C.

As for `O=C(O)c1cc(OCc2ccccc2)ccc1OC1CCOC1=O` (stereo not drawn), the melting point is 120 to 122 °C.

Turning to `CCCCC#Cc1cc(C=CCC(=O)O)ccc1OC`, the melting point was determined as 102 °C.
